The record followed here is patent US20100234377A1 (priority 2007, published 2010).

pIC50: −log10 of the molar value. Where two headings read alike, the source gives them in different places.

Series [1] has as its target T1, human Prostaglandin D Synthase (GST2) (Homo sapiens, UniProt O60760).
T1 construct: the open reading frame of human Prostaglandin D Synthase was amplified from cDNA; made in house; host or cells: E. coli TOP10F'
As to the kind of experiment: Homogeneous biochemical assay of human Prostaglandin D Synthase (GST2) based on its glutathion-S-transferase activity (GSH conjugation to monochlorobimane, fluorescence). An outline of the steps: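 N-His-tagged human PGD synthase from E. coli, assayed via its GST activity: GSH conjugation to monochlorobimane in 50 mM MES/KOH pH 6.1, 0.7 mM GSH, 2 mM MgCl2. Compounds at final picomolar to triple-digit micromolar concentrations.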

Series [2] deals with K+ATP channel (Rattus norvegicus, UniProt Q09429). As to the kind of experiment: KATP channel receptor binding assay ([3H]glibenclamide). The settings on record: [3H]glibenclamide 0.1 nM, rat cerebral cortex; for inhibition at 10 µM: Table 1, 10 μM compound concentration, read-out: K^+ATP Channel (% Inhibition of Control Specific Binding); for K+ATP Channel (% Inhibition of Control Specific Binding): Table 3. On the procedure:
KATP Channel Mediated Binding Assay
The compounds of Comparative Examples I to XII and Compounds 59, 30, 22, 76 and 69 were tested for their effects in an in vitro receptor binding KATP channel assay.
(§1) The specific ligand binding to the receptor is defined as the difference between the total binding and the non-specific binding determined in the presence of an excess of unlabelled ligand. The results are expressed as a percent inhibition of control specific binding obtained in the presence of the test compounds.
(§2) In each experiment, the respective reference compound was tested concurrently with the test compounds in order to assess the assay suitability. It was tested at several concentrations (for IC50 value determination), and the data were compared with historical values.

Series [3] deals with T2, PPARγ (h) (Homo sapiens, UniProt P37231).
T2 construct: host or cells: E. coli
T2 sequence (P37231 1-505): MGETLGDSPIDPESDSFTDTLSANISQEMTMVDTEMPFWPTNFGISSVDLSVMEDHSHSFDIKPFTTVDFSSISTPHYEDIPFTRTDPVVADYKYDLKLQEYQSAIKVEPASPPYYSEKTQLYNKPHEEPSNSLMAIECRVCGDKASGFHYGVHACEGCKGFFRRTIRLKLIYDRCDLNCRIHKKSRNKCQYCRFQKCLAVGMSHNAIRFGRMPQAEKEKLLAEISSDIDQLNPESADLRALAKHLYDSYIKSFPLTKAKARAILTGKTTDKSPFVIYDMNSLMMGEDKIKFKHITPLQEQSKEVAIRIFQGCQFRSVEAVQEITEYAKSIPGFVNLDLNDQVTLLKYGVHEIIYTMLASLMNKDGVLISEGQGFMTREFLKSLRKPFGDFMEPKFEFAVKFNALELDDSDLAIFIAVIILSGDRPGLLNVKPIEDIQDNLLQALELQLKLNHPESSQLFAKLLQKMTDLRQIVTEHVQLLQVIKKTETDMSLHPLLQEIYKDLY
As to the kind of experiment: PPARγ receptor binding assay ([3H]rosiglitazone). The settings on record: Table 3; [3H]rosiglitazone 10 nM, human recombinant.
Excerpt: Selected GST2 Inhibitors Screened Against PPARγ and KATP Channel Modulator Assays
Selected GST2 inhibitors of General Formula (I) were screened in a PPARγ assay to determine their modulator effects.
as §1, §2

Series [4] has as its system B6.V Lep^ob mice (ob/ob mice). As to the kind of experiment: Pharmacological study: body weight and food intake of treated ob/ob mice. It is filed as in vivo, mouse. The conditions noted are these: male ob/ob mice, 120 mg/kg/day by oral gavage, 12 days of treatment, versus vehicle. Here is the method: FIG. 1 is a body weight curve graph which plots the body weight and food intake of mice over time. Some of the mice are given food only whereas some are given food together with Compound 22 below.
16 Male ob/ob mice were obtained from Charles River in Belgium at an approximate age of 6 weeks and with an approximate mean body weight of 35 g at the beginning of substance administration. Mice were housed 4 per cage at a temperature of 23° C.±1 and a day/night cycle of 14/10 hours (05:00-19:00-05:00), with ad libitum access to standard chow and tap water. Mice were allowed to adapt to these conditions for 8 days prior to the start of treatment. Animals were administered substance by oral gavage in the morning at 07:00, immediately after determining body weight and food consumption. In the evening substance was administered at 19:00. One group of 8 animals were administered vehicle, 0.3% methylcellulose in saline, and the second group of 8 animals were administered Compound 22 (120 mg/kg/day) suspended in the vehicle. Body weight and food consumption were recorded daily during 12 days of treatment and the results are presented in FIG. 1, which is a body weight curve graph. This illustrates a 7% reduced weight gain in Compound 22 administered ob/ob mice, despite unaltered food intake.

The nature of series [5]: Mouse microsomal metabolism assay. It is filed as in vitro ADME. The settings on record: liver microsomes; mouse hepatic microsomes, 37° C., phosphate buffer pH 7.4, NADPH regenerating system; read-out: Mouse t½. Here is the method:
Selected GST2 Inhibitors from Formula I Assessed in Mouse Microsomal Metabolism Assay
Selected GST2 inhibitors of General Formula (I) were screened in a mouse hepatic microsome assay to determine microsomal metabolism.
Test Articles were prepared in 50% acetonitrile.
Mouse hepatic microsomes supplied by BD GenTest Inc or an equivalent reputable supplier.
Test Articles are added to incubation plates containing phosphate buffer pH 7.4 and microsomes at a suitable protein concentration. Incubation plates are placed on a shaking water bath at 37° C. for 5 minutes pre-incubation. An aliquot of the reaction mixture is taken and added to acetonitrile (3:1). This is designated time […]. NADPH regenerating system in phosphate buffer pH 7.4 is added to initiate reactions. Aliquots from the incubation wells are taken at a number of time points and added to acetonitrile. Control incubations contained no microsomes or compounds with known microsomal stabilities. Samples were subject to centrifugation to remove denatured protein and the supernatants were analysed by LCMS.
Half lives were calculated from the log vs time transformed data according to the following equation: […]
Where λ is the slope of the linear regression line under first order (Test Article concentration <Km) conditions.
In general terms: Liver microsomes are a subcellular fraction often used to study metabolism.

Where [6] appears, read: Table 1, read-out: GST2 IC50 Range.
The mark [7] stands for this setting: Table 3, read-out: GST2 IC50 range.
The mark [8] stands for this setting: given beside the compound name in Examples 1 to 167, read-out: Potency Range (GST2 IC50).

For orientation: pIC50 means −log10 of the IC50, conventionally taken in molar units. What is called inhibition is the change of the read-out against control, counted positive when it falls.

Sequence of K+ATP channel (Q09429 whole entry): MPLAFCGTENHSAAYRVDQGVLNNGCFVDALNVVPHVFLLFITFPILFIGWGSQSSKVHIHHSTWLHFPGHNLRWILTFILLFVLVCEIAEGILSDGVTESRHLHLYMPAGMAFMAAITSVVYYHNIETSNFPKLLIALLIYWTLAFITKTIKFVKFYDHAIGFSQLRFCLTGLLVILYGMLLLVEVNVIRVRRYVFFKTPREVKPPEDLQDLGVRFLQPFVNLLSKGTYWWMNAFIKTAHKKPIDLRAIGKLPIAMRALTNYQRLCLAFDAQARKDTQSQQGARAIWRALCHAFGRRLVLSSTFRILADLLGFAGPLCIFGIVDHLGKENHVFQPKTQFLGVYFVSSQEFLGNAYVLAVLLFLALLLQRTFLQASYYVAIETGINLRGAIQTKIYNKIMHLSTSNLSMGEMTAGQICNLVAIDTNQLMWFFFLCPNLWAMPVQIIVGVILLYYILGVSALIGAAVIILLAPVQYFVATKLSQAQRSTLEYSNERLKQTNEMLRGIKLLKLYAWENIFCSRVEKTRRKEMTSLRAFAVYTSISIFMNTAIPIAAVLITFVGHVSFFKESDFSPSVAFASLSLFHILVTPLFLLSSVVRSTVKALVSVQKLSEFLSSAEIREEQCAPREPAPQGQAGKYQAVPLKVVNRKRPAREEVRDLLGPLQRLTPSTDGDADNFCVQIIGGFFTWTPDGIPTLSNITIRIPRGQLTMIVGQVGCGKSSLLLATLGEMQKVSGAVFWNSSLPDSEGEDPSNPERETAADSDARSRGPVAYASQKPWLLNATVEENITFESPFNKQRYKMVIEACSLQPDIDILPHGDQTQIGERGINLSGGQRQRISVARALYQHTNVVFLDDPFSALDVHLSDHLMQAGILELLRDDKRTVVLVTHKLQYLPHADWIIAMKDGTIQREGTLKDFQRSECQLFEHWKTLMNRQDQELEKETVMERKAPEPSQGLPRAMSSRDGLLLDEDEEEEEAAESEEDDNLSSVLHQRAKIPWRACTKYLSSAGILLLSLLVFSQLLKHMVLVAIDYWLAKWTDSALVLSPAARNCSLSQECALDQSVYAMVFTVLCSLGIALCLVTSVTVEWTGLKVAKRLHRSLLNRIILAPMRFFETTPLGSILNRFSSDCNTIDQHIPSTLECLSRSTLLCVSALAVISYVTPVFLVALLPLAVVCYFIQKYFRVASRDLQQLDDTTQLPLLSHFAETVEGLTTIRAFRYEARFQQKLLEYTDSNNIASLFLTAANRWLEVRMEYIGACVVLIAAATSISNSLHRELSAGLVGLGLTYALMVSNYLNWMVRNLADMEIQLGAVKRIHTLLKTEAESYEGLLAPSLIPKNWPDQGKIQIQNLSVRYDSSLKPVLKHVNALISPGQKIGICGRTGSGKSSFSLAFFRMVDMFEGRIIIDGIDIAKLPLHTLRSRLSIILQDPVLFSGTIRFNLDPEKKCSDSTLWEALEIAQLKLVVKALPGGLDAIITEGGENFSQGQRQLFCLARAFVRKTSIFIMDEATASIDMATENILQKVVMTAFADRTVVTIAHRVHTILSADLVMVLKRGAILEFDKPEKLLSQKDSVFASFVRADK
Sequence of K+ATP channel (P70673 whole entry partner): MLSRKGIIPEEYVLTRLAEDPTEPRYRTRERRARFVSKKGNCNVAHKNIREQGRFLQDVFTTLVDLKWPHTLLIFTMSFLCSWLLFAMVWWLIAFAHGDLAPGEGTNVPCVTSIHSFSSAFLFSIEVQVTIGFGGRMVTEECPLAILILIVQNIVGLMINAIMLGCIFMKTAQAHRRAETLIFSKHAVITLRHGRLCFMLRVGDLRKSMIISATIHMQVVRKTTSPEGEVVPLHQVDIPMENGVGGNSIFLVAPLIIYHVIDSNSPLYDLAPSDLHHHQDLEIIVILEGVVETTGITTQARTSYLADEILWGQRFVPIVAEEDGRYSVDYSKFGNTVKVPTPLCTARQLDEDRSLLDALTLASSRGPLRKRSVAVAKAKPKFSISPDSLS
T1 sequence (O60760 whole entry): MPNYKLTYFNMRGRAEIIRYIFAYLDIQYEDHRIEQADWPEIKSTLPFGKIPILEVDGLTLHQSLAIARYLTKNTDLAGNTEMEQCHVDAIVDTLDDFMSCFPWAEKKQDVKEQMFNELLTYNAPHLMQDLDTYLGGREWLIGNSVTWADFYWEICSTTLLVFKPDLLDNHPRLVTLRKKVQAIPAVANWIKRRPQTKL

As to `O=C(Nc1ccc(N2CCN(C(=O)OC3CCOC3)CC2)c(F)c1)N1CCN(C(=O)c2cccc(F)c2)CC1` (racemic) [Compound 59, 4-(2-Fluoro-4-{[4-(3-fluoro-benzoyl)-piperazine-1-carbonyl]-amino}-phenyl)-piperazine-1-carboxylic acid tetrahydro-furan-3-yl ester], the negative-log IC50 (pIC50) in series [1] (setting [6]), in series [1] (setting [7]) and in series [1] (setting [8]) was 7.00 to 7.96 each time. Moreover, in series [2], the inhibition at 10 µM stood at 15%. Moreover, the “K+ATP Channel (% Inhibition of Control Specific Binding)” value in series [2] came out at 12%. Also, the “PPARγ (% Inhibition of Control Specific Binding)” value in series [3] amounted to 15%.

For the molecule `O=C(Nc1ccc(C(F)(F)F)cc1)N1CCN(C(=O)c2cccc(F)n2)CC1` [Compound 22, 4-(6-Fluoro-pyridine-2-carbonyl)-piperazine-1-carboxylic acid (4-trifluoromethyl-phenyl)-amide], the pIC50 in series [1] (setting [6]), in series [1] (setting [7]) and in series [1] (setting [8]) was 6.00 to 7.00 each time. In addition, in series [2], the inhibition at 10 µM stood at 1%. Moreover, the “K+ATP Channel (% Inhibition of Control Specific Binding)” value in series [2] is 14%. In addition, in series [3], the “PPARγ (% Inhibition of Control Specific Binding)” value is given as 1%. The reduced weight gain in series [4] is on record as 7%. The half-life in series [5] is above 1 h.

In the case of `Cc1nc(-c2cccc(NC(=O)N3CCN(C(=O)c4cccc(F)c4)CC3)c2)no1` [Compound 30, 4-(3-Fluoro-benzoyl)-piperazine-1-carboxylic acid [3-(5-methyl-[1,2,4]oxadiazol-3-yl)-phenyl]-amide], the negative-log IC50 (pIC50) in series [1] (setting [6]), in series [1] (setting [7]) and in series [1] (setting [8]) was 7.00 to 7.96 each time. Besides, in series [2], the inhibition at 10 µM is 16%. The “K+ATP Channel (% Inhibition of Control Specific Binding)” value in series [2] was found to be 13%. For the same molecule, the “PPARγ (% Inhibition of Control Specific Binding)” value in series [3] is on record as 16%.

As to `O=C(Nc1nc(-c2ccccc2)cs1)N1CCN(C(=O)c2cccc(F)c2)CC1` [Compound 69, 4-(3-Fluoro-benzoyl)-piperazine-1-carboxylic acid (4-phenyl-thiazol-2-yl)-amide], the pIC50 in series [1] (setting [6]), in series [1] (setting [7]) and in series [1] (setting [8]) was 7.00 to 7.96 each time. Further, in series [2], the inhibition at 10 µM is -22%. Also, the “K+ATP Channel (% Inhibition of Control Specific Binding)” value in series [2] is −13%. The “PPARγ (% Inhibition of Control Specific Binding)” value in series [3] is reported as −22%.

`Cn1cnnc1-c1cccc(NC(=O)N2CCN(C(=O)c3cccc(F)c3)CC2)c1` [Compound 76, 4-(3-Fluoro-benzoyl)-piperazine-1-carboxylic acid [3-(4-methyl-4H-[1,2,4]triazol-3-yl)-phenyl]-amide]: the pIC50 was 7.00 to 7.96 in series [1] (setting [6]), 7.00 to 7.96 in series [1] (setting [7]) and 6.00 to 7.00 in series [1] (setting [8]). Moreover, the inhibition at 10 µM in series [2] amounted to 20%. Also, in series [2], the “K+ATP Channel (% Inhibition of Control Specific Binding)” value was −2%. Moreover, the “PPARγ (% Inhibition of Control Specific Binding)” value in series [3] worked out at 20%.
